From US11891371B2, “Piperonylic acid derivative and preparation and application thereof” (SHENYANG SINOCHEM AGROCHEMICALS R&D CO., LTD., priority 2017, dated 2024)
Where two headings read alike, the source gives them in different places.

Tests used:
adult spider mite = assay: Determination of acaricidal activity against adult spider mite (bean leaf spray, 72 h mortality); type: in vivo; conditions: after 72 hours
Method: (§1) According to the solubility of test compounds, the compounds are dissolved in acetone or dimethyl sulfoxide, and then diluted with 0.1% aqueous solution of Tween 80 to form a required concentration of 50 ml test liquid. The content of the acetone or the dimethyl sulfoxide in the total solution is not more than 10%.
The adult spider mites were put into two true leaves of bean plants. After the number of mites was investigated, the solution of certain concentrations of test compounds was sprayed by using a handheld Airbrush. Three replicates were set for each treatment. Then the leaves were maintained in a standard observation room. After 72 hours, the number of surviving mites was observed, and the mortality rate was calculated.

armyworm = assay: Determination of activity against armyworm (corn leaf dip, third instar, 72 h mortality); type: in vivo; conditions: foliar; for mortality at 0.1 µg/mL: read-out: Mortality rate (%) 0.1 mg/L
Method: as §1, with “liquid,” for “liquid.”
The middle leaves of fresh corns were cut into small sections of 3 cm, and dipped into a solution of the required concentration of test compounds for 10 seconds. After dried in shade, the middle leaves were placed in a 9 cm diameter petri dish provided with filter paper. Fourteen regular healthy test insects (third instar) were put into the leaves. Four replicates were set for each treatment. The pure water treatment was set as control check. The treated discs were placed in a chamber of is 24° C., 60%-70% relative humidity and day light. After 72 hours, the number of surviving insects was investigated, and the mortality rate was calculated.

diamondback moth = assay: Determination of activity against diamondback moth (cabbage leaf disc dip, second instar, 72 h mortality); type: in vivo; conditions: Plutella xylostella, foliar, 1 mg/L, read-out: mortality rates against diamondback moth
Method: as §1, with “liquid,” for “liquid.”
The leaves of cabbage grown in greenhouse were selected, removed the surface waxy layers, punched into circular leaf discs with a diameter of 2 cm by using a puncher, and dipped into a solution of the required concentration of test compounds for 10 seconds. After dried in shade, the circular leaf discs were placed in a 9 cm diameter petri dish provided with filter paper. Ten regular healthy test insects (second instar) were put into the leaf discs. Four replicates were set for each treatment. The pure water treatment was set as control check. The treated discs were placed in a chamber of 24° C., 60%-70% relative humidity and day light. After 72 hours, the number of surviving insects was investigated, and the mortality rate was calculated.

beet armyworm = assay: Determination of activity against beet armyworm (cabbage leaf disc spray, third instar, 96 h mortality); type: in vivo; conditions: after 96 hours
Method: as §1, with “liquid,” for “liquid.”
The cabbage leaves were punched into circular leaf discs with a diameter of 1 cm by using a puncher. A certain concentration of test compound was sprayed on both sides of each leaf disc at a spray volume of 0.5 ml by a handheld Airbrush. After the leaf discs were dried in shade, 12 test insects (third instar) were put into the leaf discs. Three replicates were set for each treatment. The pure water treatment was set as control check. The treated discs were placed in a chamber of 24° C., 60%-70% relative humidity and day light. After 96 hours, the number of surviving insects was investigated, and the mortality rate was calculated. See Table 2 for parallel determination results of activity of compounds 1-8 and KC2 (compound 3-1 in U.S. Pat. No. 8,853,440B2) against beet armyworm.

green peach aphid = assay: Determination of activity against green peach aphid (cabbage leaf spray, 48 h mortality); type: in vivo; conditions: Myzus persicae, 10 mg/L, read-out: mortality rates against green peach aphid
Method: as §1, with “liquid,” for “liquid.”
A layer of filter paper was covered on the bottom of the 6 cm diameter petri dish. To the petri dish, a proper amount of tap water was added dropwise for moisture retention. Cabbage leaves, on which 15-30 aphids exist, with a suitable size (about 3 cm in diameter) were cut from the cabbage plants breeding peach aphids. After winged aphids and the aphids on the front surface of the leaves were removed, the leaves were placed in the petri dish in a manner of backing on to the petri dish, and sprayed with a handheld Airbrush, with a pressure of 10 psi (about 0.7 kg/cm^2) and a spray volume of 0.5 ml, Three replicates were set for each treatment. After treatment, the cabbage leaves were placed in a standard observation room. After 48 hours, the number of surviving aphids was investigated, and the mortality rate was calculated.

rice leaf folder = assay: Determination of activity against rice leaf folder in field trial (foliar spray, 15 days mortality); type: in vivo; conditions: after 15 days
Method: A certain concentration of test compounds was sprayed on the leaf surfaces in the peak of the hatching period of the rice leaf folders, with a spray volume of 450 L per hectare. The area of a rice plot was 32 square meters. Three replicates were set for each treatment. After 15 days, the number of surviving rice leaf folders was investigated, and the mortality rate was calculated. See Table 3 for parallel determination results of activity of compounds I-8 and KC2 against rice leaf folder.

housefly larva = assay: Determination of activity against housefly larva (feed poisoning method, third instar, 72 h mortality); type: in vivo; conditions: after 72 hours
Method: Third instar housefly larvae were tested by a feed poisoning method. 1000 mg/L, of acetone solution of the test compounds was diluted into a required concentration of test liquid by using a certain concentration of milk powder emulsion according to a test design dose. The test liquid was uniformly added to a 6 cm diameter petri dish provided with filter paper by using a pipette, with 1 ml per dish. The third instar housefly larvae were put into the petri dish. Three replicates were set for each treatment. Then the petri dishes were maintained in a standard observation room. After 72 hours, the number of surviving housefly larvae was investigated, and the mortality rate was calculated. See Table 5 for parallel determination results of activity of compounds I-51 and KC2 against housefly larva.

Spodoptera litura = conditions: 100 ppm; disclosed in WO2005073165A1, US2007275980A1, US20140206727A1; cited from earlier work
Plutella xylostella = conditions: 100 ppm; disclosed in WO2005073165A1, US2007275980A1, US20140206727A1; cited from earlier work
[1] = 0.3 mg/L, 72 hours, read-out: mortality rates against armyworm
[2] = 0.1 mg/L, armyworm, 72 hours, parallel determination
[3] = 0.3 mg/L, armyworm, 72 hours, parallel determination, read-out: Mortality rate (%) 0.3 mg/L

Row | Structure (SMILES) | Mortality rate (%) (adult spider mite; 10 mg/L) | Mortality rate (%) (adult spider mite; 100 mg/L) | Mortality rate (%) (adult spider mite; 600 mg/L) | mortality at 0.3 µg/mL (armyworm; [1]) [%] | mortality at 1 µg/mL (diamondback moth) [%] | also measured
1 | O=C(Nc1cccc(C(=O)Nc2ccc(C(F)(C(F)(F)F)C(F)(F)F)cc2)c1F)c1ccc2c(c1)OC(F)(F)O2 [Compound C1] | 0 | 0 | 0 | – | – | –
2 | O=C(Nc1cccc(C(=O)Nc2c(Br)cccc2Br)c1F)c1ccc2c(c1)OC(F)(F)O2 [Compound C2] | 0 | 0 | 0 | – | – | –
3 | O=C(Nc1cccc(C(=O)Nc2c(Br)cc(C(F)(C(F)(F)F)C(F)(F)F)cc2C(F)(F)F)c1F)c1ccc2c(c1)OC(F)(F)O2 [Compound I-2] | – | – | – | > 90 | > 90 | –
4 | O=C(Nc1cccc(C(=O)Nc2c(Br)cc(C(F)(C(F)(F)F)C(F)(F)F)cc2I)c1F)c1ccc2c(c1)OC(F)(F)O2 [Compound I-5, N-(2-bromo-6-iodo-4-perfluoroisopropylphenyl)-3-(2,2-difluoro-1,3-benzodioxole-5-carboxamido)-2-fluorobenzamide] | – | – | – | > 90 | > 90 | –
5 | O=C(Nc1cccc(C(=O)Nc2c(Br)cc(C(F)(C(F)(F)F)C(F)(F)F)cc2Br)c1F)c1ccc2c(c1)OC(F)(F)O2 [Compound I-8] | 93.3 | 100 | 100 | > 90 | > 90 | mortality at 0.1 µg/mL (armyworm; [2]): 100%; mortality at 0.3 µg/mL (armyworm; [3]): 100%; Mortality rate (%) (beet armyworm; 0.2 mg/L): 83.3%; Mortality rate (%) (beet armyworm; 1 mg/L): 91.7%; mortality at 10 µg/mL (green peach aphid): > 80%; Mortality rate (%) (rice leaf folder; 30 g/ha): 83%; Mortality rate (%) (rice leaf folder; 45 g/ha): 85%
6 | CN(C(=O)c1ccc2c(c1)OC(F)(F)O2)c1cccc(C(=O)Nc2c(I)cc(C(F)(C(F)(F)F)C(F)(F)F)cc2I)c1F [Compound I-44] | – | – | – | > 90 | > 90 | –
7 | CN(C(=O)c1ccc2c(c1)OC(F)(F)O2)c1cccc(C(=O)Nc2c(Br)cc(C(F)(C(F)(F)F)C(F)(F)F)cc2C(F)(F)F)c1F [Compound I-45, N-(2-bromo-4-heptafluoroisopropyl-6-trifluoromethylphenyl)-2-fluoro-3-(N-methyl-2,2-difluoro-1,3-benzodioxole-5-carboxamido) Benzamide] | – | – | – | > 90 | > 90 | –
8 | CN(C(=O)c1ccc2c(c1)OC(F)(F)O2)c1cccc(C(=O)Nc2c(Br)cc(C(F)(C(F)(F)F)C(F)(F)F)cc2I)c1F [Compound I-48, N-(2-bromo-6-iodo-4-perfluoroisopropylphenyl)-2-fluoro-3-(N-methyl-2,2-difluoro-1,3-benzodioxole-5-carboxamido)benzamide] | – | – | – | > 90 | > 90 | –
9 | CN(C(=O)c1ccc2c(c1)OC(F)(F)O2)c1cccc(C(=O)Nc2c(Br)cc(C(F)(C(F)(F)F)C(F)(F)F)cc2Br)c1F [Compound I-51, N-(2,6-dibromide-4-heptafluoroisopropylphenyl)-2-fluoro-3-(N-methyl-2,2-difluoro-1,3-benzodioxole-5-carboxamido)benzamide] | – | – | – | > 90 | > 90 | mortality at 0.1 µg/mL (armyworm; [2]): 85.7%; mortality at 0.3 µg/mL (armyworm; [3]): 100%; mortality at 10 µg/mL (green peach aphid): > 80%; Mortality rate (%) (housefly larva; 1 mg/L): 75%; Mortality rate (%) (housefly larva; 3 mg/L): 90.5%; Mortality rate (%) (housefly larva; 10 mg/L): 100%
10 | Cc1cc(C(F)(C(F)(F)F)C(F)(F)F)cc(C)c1NC(=O)c1cccc(NC(=O)c2ccc3c(c2)OC(F)(F)O3)c1 [KC1] | 0 | 0 | 0 | – | – | mortality at 0.1 µg/mL (armyworm; 72 h): 0%; mortality at 0.3 µg/mL (armyworm; 72 h, read-out: Mortality rate (%) 0.3 mg/L): 0%; mortality rates against Spodoptera litura (Spodoptera litura): ≥ 70%; mortality rates against Plutella xylostella (Plutella xylostella): ≥ 70%
11 | CN(C(=O)c1ccccc1)c1cccc(C(=O)Nc2c(Br)cc(C(F)(C(F)(F)F)C(F)(F)F)cc2C(F)(F)F)c1F [KC2, Broflanilide, reference compound] | 0 | 0 | 0 | – | – | Mortality rate (%) (beet armyworm; 0.2 mg/L): 66.7%; Mortality rate (%) (beet armyworm; 1 mg/L): 83.3%; Mortality rate (%) (rice leaf folder; 30 g/ha): 79%; Mortality rate (%) (rice leaf folder; 45 g/ha): 82%; Mortality rate (%) (housefly larva; 1 mg/L): 50%; Mortality rate (%) (housefly larva; 3 mg/L): 69.6%; Mortality rate (%) (housefly larva; 10 mg/L): 100%
12 | O=C(Nc1cccc(C(=O)Nc2c(Br)cc(C(F)(C(F)(F)F)C(F)(F)F)cc2Br)c1F)c1ccccc1 [KC3] | 0 | 0 | 0 | – | – | mortality at 0.1 µg/mL (armyworm; [2]): 28.6%; mortality at 0.3 µg/mL (armyworm; [3]): 64.3%
